Where no end group is shown, it is not given here.

This passage reports S/N and ELISA results from paper PMC10977697 (PLOS ONE, 2024).

For the first test, the system named is HtrA1. It counts as binding, human. To be noted: ratio of signal for target protein over BSA background.
Consider “AFDCLGQCGRCDFHKLQCVIQQMRWKAQPDGYCNSSCTR (also: bicyclic or more (positions not given here)) [HtrA1 AVR9 37]”, for which the S/N was 9.7.
With “AFDCLGQCGRCDFHKLQCVKQVMATLWSMYCNSSCTR (also: bicyclic or more (positions not given here)) [HtrA1 AVR9 39]”, the S/N is reported as 9.9.
Same read-out and setting: the same measure for “AFDCLGQCGRCDFHKLQCVLWHQWVKWYVYCNSSCTR (also: bicyclic or more (positions not given here)) [HtrA1 AVR9 68]”: 8.9; for “AFDCLGQCGRCDFHKLQCVLWTVANMQHYYCNSSCTR (also: bicyclic or more (positions not given here)) [HtrA1 AVR9 85]”: 6.5.
Still for that read-out and setting: the same measure for “AFDCLGQCGRCDFHKLQCVMMRLLARWVFKFYCNSSCTR (also: bicyclic or more (positions not given here)) [HtrA1 AVR9 52]”: 13.2; for “AFDCLGQCGRCDFHKLQCVQYAYRWLMRQYCNSSCTR (also: bicyclic or more (positions not given here)) [HtrA1 AVR9 55]”: 4.1; for “AFDCLGQCGRCDFHKLQCVRWSIDAIIIWYCNSSCTR (also: bicyclic or more (positions not given here)) [HtrA1 AVR9 42]”: 12.1.
For the sequence “AFDCLGQCGRCDFHKLQCVRYLIKYSIMWMTYCNSSCTR (also: bicyclic or more (positions not given here)) [HtrA1 AVR9 26]”, the S/N is 15.1.
On the same count and under the same terms, the same measure for “AFDCLGQCGRCDFHKLQCVVFQIIYQAVNYCNSSCTR (also: bicyclic or more (positions not given here)) [HtrA1 AVR9 88]”: 9.5; for “AFDCLGQCGRCDFHKLQCVVTIIRKMMLWYCNSSCTR (also: bicyclic or more (positions not given here)) [HtrA1 AVR9 31]”: 19.0; for “AFDCLGQCGRCDFHKLQCVWRWMHQYCNSSCTR (also: bicyclic or more (positions not given here)) [HtrA1 AVR9 2]”: 22.7.
Same read-out and setting: the same measure for “AFDCLGQCGRCDFHKLQCVWRYIQKMRYCNSSCTR (also: bicyclic or more (positions not given here)) [HtrA1 AVR9 89]”: 14.9; for “AFDCLGQCGRCDFHKLQCVWSIYVKFWYCNSSCTR (also: bicyclic or more (positions not given here)) [HtrA1 AVR9 4]”: 21.2.
Still for that read-out and setting: for “AFDCLGQCGRCDFHKLQCVYRQFWMVKFGWQPGYCNSSCTR (also: bicyclic or more (positions not given here)) [HtrA1 AVR9 10]” the value was 15.2.
On to “GCHSVHSMCKQDSDCLAGCVCYWFYGCG (also: bicyclic or more (positions not given here)) [HtrA1 EET I-II 1]”, for which the S/N came to 11.8.
Same read-out and setting: for “GCPRILMRCKQDSDCLAGCVCWMPVLCV (also: bicyclic or more (positions not given here)) [HtrA1 EET I-II 19]” the value was 3.1; for “GCREMLGNWVCKRFRLSSWLCLWSNGFCGT [HtrA1 EET I-II 41]”, 11.8.
Turning to “GCWWMNVRTRQGCKQDSDCLAGCVCGPNGFCG (also: bicyclic or more (positions not given here)) [HtrA1 EET I-II 25]”, the S/N worked out at 2.8.
The same measure, in the same setting: for “GPTQSHYGQCGGRGYFGTMYCASGTTCQFKWRRDSQCLPGAS (also: bicyclic or more (positions not given here)) [HtrA1 CBD 74]” the value was 22.8; for “GPTQSHYGQCGGSGYWGLFMCASGTTCQSVTMTVSQCLPGAS (also: bicyclic or more (positions not given here)) [HtrA1 CBD 54]”, 5.6.
The same measure, in the same setting: for “GPTQSHYGQCGGWGYTGWYQCASGTTCQGPRSRLSQCLPGAS (also: bicyclic or more (positions not given here)) [HtrA1_CBDwt46]” the value was 25.9; for “WIPCISAALGCSCKNKVCYALNNMVQFLYIHHCGESCV (also: bicyclic or more (positions not given here)) [HtrA1 CirculinA 66]”, 12.7; for “WIPCISAALGCSCKNKVCYFFHKLMYYMCGESCV (also: bicyclic or more (positions not given here)) [HtrA1 CirculinA 24]”, 17.7.
Still for that read-out and setting: for “WIPCISAALGCSCKNKVCYFMTQHIRWFVKCGESCV (also: bicyclic or more (positions not given here)) [HtrA1 CirculinA 91]” the value was 26.8; for “WIPCISAALGCSCKNKVCYHFQHWVQMNKCGESCV (also: bicyclic or more (positions not given here)) [HtrA1 CirculinA 82]”, 10.4; for “WIPCISAALGCSCKNKVCYILNRSCGESCV (also: bicyclic or more (positions not given here)) [HtrA1 CirculinA 40]”, 8.0.
In the case of “WIPCISAALGCSCKNKVCYIVILTTPCGESCV (also: bicyclic or more (positions not given here)) [HtrA1 CirculinA 73]”, the S/N is 8.4.
Still for that read-out and setting: for “WIPCISAALGCSCKNKVCYMYYYIMGQNLMNTCGESCV (also: bicyclic or more (positions not given here)) [HtrA1 CirculinA 48]” the value was 24.1; for “WIPCISAALGCSCKNKVCYQVWQHIFKCGESCV (also: bicyclic or more (positions not given here)) [HtrA1 CirculinA 67]”, 15.4; for “WIPCISAALGCSCKNKVCYVATMVVHWVCGESCV (also: bicyclic or more (positions not given here)) [HtrA1 CirculinA 34]”, 16.8.
Same read-out and setting: the same measure for “WIPCISAALGCSCKNKVCYYAGKIYSWQAQLLCGESCV (also: bicyclic or more (positions not given here)) [HtrA1 CirculinA 93]”: 8.4; for “WIPCISAALGCSCKNKVCYYMWHVHSLICGESCV (also: bicyclic or more (positions not given here)) [HtrA1 CirculinA 36]”: 9.6; for “WIPCISAALGCSCKNKVCYYTILPISYYWHLVCGESCV (also: bicyclic or more (positions not given here)) [HtrA1 CirculinA 45]”: 8.2.
Same read-out and setting: for “WIPCISAALGCSCKNKVCYYVMKYCGESCV (also: bicyclic or more (positions not given here)) [HtrA1 CirculinA 17]” the value was 13.7.

The test system of another test is Fz7CRD-Fc. The test is classed as binding. To be noted: ratio of signal for target protein over BSA background.
Regarding “AFDCLGQCGRCDFHKLQCVLVEPSGWYQVISWKYCNSSCTR (also: bicyclic or more (positions not given here)) [Fz7CRD-Fc AVR9 2]”, the S/N was 5.0.
Same read-out and setting: the same measure for “GCGWLPELKLWCKQDSDCLAGCVCEDMIDCG (also: bicyclic or more (positions not given here)) [Fz7CRD-Fc EET I-II 38]”: 15.1.

Staying with this test, now noted: spot phage ELISA signal; DCP displayed on M13 p8.
“AFDCLGQCGRCDFHKLQCVLVEPSGWYQVISWKYCNSSCTR (also: bicyclic or more (positions not given here)) [Fz7CRD-Fc AVR9 2]” yielded an ELISA of 0.29.
On the same count and under the same terms, for “GCGWLPELKLWCKQDSDCLAGCVCEDMIDCG (also: bicyclic or more (positions not given here)) [Fz7CRD-Fc EET I-II 38]” the value was 1.32.
